The values below come from ChEMBL document CHEMBL1158075, “Brominated cyclodipeptides from the marine sponge Geodia barretti as selective 5-HT ligands” (J Nat Prod, 2006).

For assay [1], the target named is T1, 5-hydroxytryptamine receptor 4 (Homo sapiens, UniProt Q13639). Nature of the assay: Binding affinity to human 5HT4 receptor expressed in HEK293 cells by saturation binding method. The format is cell-based.
Assay [2] addresses T1, 5-hydroxytryptamine receptor 4. Nature of the assay: Displacement of [N-methyl-3H]GR-113808 from human 5HT4 receptor expressed in HEK293 cells. It is filed as cell-based.
In assay [3] the target is T2, 5-hydroxytryptamine receptor 2C (Homo sapiens, UniProt P28335).
T2 sequence (P28335 whole entry): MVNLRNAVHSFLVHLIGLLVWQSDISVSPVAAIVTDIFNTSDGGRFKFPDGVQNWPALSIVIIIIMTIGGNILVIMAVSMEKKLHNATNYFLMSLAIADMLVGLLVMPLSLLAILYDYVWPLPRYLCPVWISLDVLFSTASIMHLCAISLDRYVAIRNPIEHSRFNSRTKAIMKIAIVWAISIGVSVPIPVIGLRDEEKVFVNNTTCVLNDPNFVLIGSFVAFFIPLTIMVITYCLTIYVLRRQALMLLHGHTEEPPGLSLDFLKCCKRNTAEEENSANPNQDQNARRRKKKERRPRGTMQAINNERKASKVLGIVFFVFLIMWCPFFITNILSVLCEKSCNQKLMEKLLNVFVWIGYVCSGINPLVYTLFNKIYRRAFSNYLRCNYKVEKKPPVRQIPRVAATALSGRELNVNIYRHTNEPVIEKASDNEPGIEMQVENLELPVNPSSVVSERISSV
The assay can be described thus: Displacement of [N-methyl-3H]LSD from human 5HT2C receptor expressed in HEK293 cells. It is filed as cell-based.

In assay [4] the target is 5-hydroxytryptamine receptor 2A (Homo sapiens, UniProt P28223). Nature of the assay: biochemical. The format is cell-based, HEK293.
Chain of 5-hydroxytryptamine receptor 2A (P28223 whole entry): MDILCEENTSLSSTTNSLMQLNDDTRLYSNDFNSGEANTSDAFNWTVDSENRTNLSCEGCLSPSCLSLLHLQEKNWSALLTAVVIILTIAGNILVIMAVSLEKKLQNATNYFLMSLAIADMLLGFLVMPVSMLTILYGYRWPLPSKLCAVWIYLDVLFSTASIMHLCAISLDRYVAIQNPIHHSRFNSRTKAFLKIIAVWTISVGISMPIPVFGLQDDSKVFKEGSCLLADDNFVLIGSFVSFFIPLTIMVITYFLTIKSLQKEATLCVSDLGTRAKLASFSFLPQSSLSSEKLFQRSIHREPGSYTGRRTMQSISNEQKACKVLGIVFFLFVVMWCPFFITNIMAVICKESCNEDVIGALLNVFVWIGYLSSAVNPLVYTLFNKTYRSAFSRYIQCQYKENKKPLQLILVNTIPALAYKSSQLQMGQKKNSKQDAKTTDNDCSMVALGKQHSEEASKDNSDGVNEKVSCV

T1 sequence (Q13639 whole entry): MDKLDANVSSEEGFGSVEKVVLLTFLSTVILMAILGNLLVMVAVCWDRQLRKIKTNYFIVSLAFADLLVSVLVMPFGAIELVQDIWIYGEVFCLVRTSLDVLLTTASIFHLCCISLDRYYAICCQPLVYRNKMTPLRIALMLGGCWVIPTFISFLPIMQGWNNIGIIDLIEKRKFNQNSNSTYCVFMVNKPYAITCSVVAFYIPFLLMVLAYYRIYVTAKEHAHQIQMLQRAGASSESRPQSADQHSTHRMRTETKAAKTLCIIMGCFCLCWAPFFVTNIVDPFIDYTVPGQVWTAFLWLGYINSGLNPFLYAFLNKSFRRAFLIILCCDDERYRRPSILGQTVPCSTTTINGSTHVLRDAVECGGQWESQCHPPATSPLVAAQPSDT

As usually defined, the Kd is a measure of binding affinity in units of concentration. `[3H]C([3H])([3H])n1cc(C(=O)OCC2CCN(CCNS(C)(=O)=O)CC2)c2ccccc21` showed a Kd in assay [1] of 15.8 nM.
A word on the Ki: it is a measure of affinity in units of concentration, obtained from inhibition or displacement. `CCCCCNC(=N)N/N=C/c1c[nH]c2ccc(OC)cc12` [TEGASEROD] came in with an inhibition constant Ki in assay [2] of 31 nM.
`NC(N)=NCCC[C@@H]1NC(=O)[C@H](Cc2c[nH]c3cc(Br)ccc23)NC1=O`: the Ki in assay [3] worked out at 4630 nM.
As for `N=C(N)NCCC[C@@H]1NC(=O)/C(=C/c2c[nH]c3cc(Br)ccc23)NC1=O` [BARETTIN], the inhibition constant Ki in assay [2] was 1910 nM; in assay [3], 340 nM; in assay [4] it was 1930 nM.
Consider `CC[C@@H](CO)NC(=O)[C@@H]1C=C2c3cccc4c3c(cn4C)C[C@H]2N(C)C1` [METHYSERGIDE], for which affinity in assay [3] was put at a Ki of 2.5 nM.
